The subject of assay [1] is H3K27me3 mark in HeLa cells. The experiment in a line: H3K27me3 Alpha Hela Assay (AlphaLISA). Type of assay: cell-based. Conditions: 72 hrs, read-out: H3K27me3_Alpha_HeLa_ (EC50). In a few lines:
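HeLa cells (1,000/well) were treated with ten 3-fold compound doses for 72 h at 37 °C. After histone extraction, H3K27me3 was detected by AlphaLISA (anti-K27me3 acceptor beads, biotinylated anti-H3, streptavidin donor), with viability measured on a duplicate plate. Data were normalized to DMSO and curve-fitted.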
(In general: Alpha assays give light when donor and acceptor beads are brought close together.)

Another assay addresses EZH2 (rPRC2) (Homo sapiens, UniProt Q15910). The experiment in a line: EZH2 assay: rPRC2, biotinylated oligonucleosomes, 3H SAM methyl transfer (FlashPlate scintillation). Type of assay: biochemical. Conditions: biotinylated oligonucleosome substrate.
Assay [2] concerns H3K27me3 mark in HeLa cells. The assay is described as follows: H3K27me3 MSD Hela Assay. Type of assay: cell-based. Conditions: read-out: H3K27me3_MSD_HeLa_ (EC50). In a few lines: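 HeLa cells treated with compound at various concentrations for 96 h at 37 °C, then lysed with high-salt extraction. H3K27me3 measured by MSD electrochemiluminescence immunoassay on total-H3 capture plates. Dose-dependent inhibition normalised to DMSO wells and fitted to curves.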

For another assay, the target named is Y641N EZH2 (Homo sapiens, UniProt Q15910, Y641N). The experiment in a line: Y641N EZH2 assay: as EZH2 assay, with reconstituted H3K27Me2 oligonucleosomes as substrate. Type of assay: biochemical.
Sequence of Y641N EZH2 (Q15910 whole entry Y641N): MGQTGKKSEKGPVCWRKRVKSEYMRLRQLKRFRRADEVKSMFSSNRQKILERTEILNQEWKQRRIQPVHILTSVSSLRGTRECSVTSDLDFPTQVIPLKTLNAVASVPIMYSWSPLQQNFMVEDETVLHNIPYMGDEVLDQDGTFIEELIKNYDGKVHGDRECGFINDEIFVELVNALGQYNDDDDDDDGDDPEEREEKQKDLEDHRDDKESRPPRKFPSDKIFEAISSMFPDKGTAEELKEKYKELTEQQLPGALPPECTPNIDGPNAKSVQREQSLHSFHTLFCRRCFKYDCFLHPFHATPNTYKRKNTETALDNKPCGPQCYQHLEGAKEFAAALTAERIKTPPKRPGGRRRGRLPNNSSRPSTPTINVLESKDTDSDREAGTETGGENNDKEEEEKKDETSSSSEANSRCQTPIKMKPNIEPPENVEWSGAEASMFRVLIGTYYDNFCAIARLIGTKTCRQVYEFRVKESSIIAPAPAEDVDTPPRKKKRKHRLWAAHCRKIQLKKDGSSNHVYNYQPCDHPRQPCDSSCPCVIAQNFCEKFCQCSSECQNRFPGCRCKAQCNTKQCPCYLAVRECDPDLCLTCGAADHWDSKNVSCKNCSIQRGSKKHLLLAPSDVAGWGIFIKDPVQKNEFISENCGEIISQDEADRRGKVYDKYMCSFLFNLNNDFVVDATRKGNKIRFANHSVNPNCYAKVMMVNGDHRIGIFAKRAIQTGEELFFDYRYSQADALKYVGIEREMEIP
Sequence of Y641N EZH2 (O75530 whole entry partner): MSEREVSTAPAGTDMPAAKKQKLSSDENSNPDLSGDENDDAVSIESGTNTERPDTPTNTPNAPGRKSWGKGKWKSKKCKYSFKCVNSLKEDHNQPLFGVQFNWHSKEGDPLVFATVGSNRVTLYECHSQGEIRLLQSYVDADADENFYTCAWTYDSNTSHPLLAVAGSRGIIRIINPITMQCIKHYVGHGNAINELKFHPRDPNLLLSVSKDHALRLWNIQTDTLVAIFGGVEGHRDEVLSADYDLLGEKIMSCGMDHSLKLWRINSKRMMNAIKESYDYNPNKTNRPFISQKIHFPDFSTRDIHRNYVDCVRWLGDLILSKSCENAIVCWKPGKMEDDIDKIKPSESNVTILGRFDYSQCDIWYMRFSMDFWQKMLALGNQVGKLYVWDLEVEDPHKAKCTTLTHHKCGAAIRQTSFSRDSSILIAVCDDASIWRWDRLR
Sequence of Y641N EZH2 (Q15022 whole entry partner): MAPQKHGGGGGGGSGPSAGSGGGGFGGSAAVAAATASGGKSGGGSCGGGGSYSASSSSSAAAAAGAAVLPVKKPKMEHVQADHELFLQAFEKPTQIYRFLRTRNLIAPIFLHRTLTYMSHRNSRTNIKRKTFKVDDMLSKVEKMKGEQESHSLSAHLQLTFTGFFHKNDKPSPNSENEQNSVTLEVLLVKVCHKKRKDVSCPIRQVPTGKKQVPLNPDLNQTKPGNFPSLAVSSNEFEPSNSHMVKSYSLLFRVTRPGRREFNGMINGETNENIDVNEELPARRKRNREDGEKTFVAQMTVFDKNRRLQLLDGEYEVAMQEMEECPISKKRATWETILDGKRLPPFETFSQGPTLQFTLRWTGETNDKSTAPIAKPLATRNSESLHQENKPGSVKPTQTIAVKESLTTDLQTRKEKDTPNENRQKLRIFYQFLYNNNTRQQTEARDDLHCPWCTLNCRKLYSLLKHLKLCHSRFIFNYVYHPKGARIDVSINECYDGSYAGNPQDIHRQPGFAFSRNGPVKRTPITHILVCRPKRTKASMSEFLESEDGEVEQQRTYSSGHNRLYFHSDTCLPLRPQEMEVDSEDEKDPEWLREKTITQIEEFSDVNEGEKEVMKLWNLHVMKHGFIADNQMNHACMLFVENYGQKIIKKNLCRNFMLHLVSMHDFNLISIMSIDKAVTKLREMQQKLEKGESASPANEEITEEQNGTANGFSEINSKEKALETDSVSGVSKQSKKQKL
Setting [3] is: Y641N EZH2 IC50, Y641N mutant EZH2, H3K27Me2 oligonucleosome substrate.
Where [4] appears, read: EZH2 IC50, wild-type EZH2 (rPRC2).

Counter-ions that a name gives are not always drawn. Like-named read-outs stand apart in the source and are kept apart here. Where only a bound is given, the exact number is not on record here.

Sequence of EZH2 (rPRC2) (Q15910 whole entry): as the sequence (Q15910 whole entry Y641N) above, with N641Y counted along it
Sequence of EZH2 (rPRC2) (O75530 whole entry partner): as the sequence (O75530 whole entry partner) above
Sequence of EZH2 (rPRC2) (Q15022 whole entry partner): as the sequence (Q15022 whole entry partner) above

With `COCC(C)n1c(C)c(C(=O)NCc2c(OC)cc(C)[nH]c2=O)c2ccccc21` (single isomer, unassigned) [Compound 224, N-((4-methoxy-6-methyl-2-oxo-1,2-dihydropyridin-3-yl)methyl)-1-(1-methoxypropan-2-yl)-2-methyl-1H-indole-3-carboxamide], the EC50 in assay [1] (Homo sapiens) was less than 400 nM; in assay [2] (Homo sapiens, HeLa, 96 h), less than 400 nM. For the same compound, the IC50 is less than 100 nM at EZH2 (rPRC2) (read-out: EZH2 IC50, wild-type EZH2 (rPRC2)) and less than 100 nM against Y641N EZH2 (setting [3]).
In the case of `COc1cc(C)[nH]c(=O)c1CNC(=O)c1c(C)n(C(C)C(C)OC)c2ncccc12` (single isomer, unassigned) [Compound 261, N-((4-methoxy-6-methyl-2-oxo-1,2-dihydropyridin-3-yl)methyl)-1-((2R or 2S, 3R or 3S)-3-methoxybutan-2-yl)-2-methyl-1H-pyrrolo[2,3-b]pyridine-3-carboxamide], the EC50 in assay [1] (Homo sapiens) is less than 400 nM; in assay [2] (Homo sapiens, HeLa, 96 h) it was less than 400 nM. In addition, the IC50 on EZH2 (rPRC2) (setting [4]) and against Y641N EZH2 (setting [3]) was less than 100 nM throughout.
Regarding `COc1cc(C)[nH]c(=O)c1CNC(=O)c1c(C)n(C(C)C2CCOCC2)c2ncccc12` (single isomer, unassigned) [Compound 288, (R or S)-N-((4-Methoxy-6-methyl-2-oxo-1,2-dihydropyridin-3-yl)methyl)-2-methyl-1-(1-(tetrahydro-2H-pyran-4-yl)ethyl)-1H-pyrrolo[2,3-b]pyridine-3-carboxamide], the EC50 is less than 400 nM in assay [1] (Homo sapiens) and 400 to 2000 nM in assay [2] (Homo sapiens, HeLa, 96 h). Further, the IC50 against EZH2 (rPRC2) (setting [4]) and against Y641N EZH2 (setting [3]) was less than 100 nM each time.
Consider `COc1cc(C)[nH]c(=O)c1CNC(=O)c1c(C)n(C(C)C2CCOCC2)c2cc(F)ccc12` (single isomer, unassigned) [Compound 300, (R or S)-6-fluoro-N-((4-methoxy-6-methyl-2-oxo-1,2-dihydropyridin-3-yl)methyl)-2-methyl-1-(1-(tetrahydro-2H-pyran-4-yl)ethyl)-1 H-indole-3-carboxamide], for which the EC50 in assay [1] (Homo sapiens) was less than 400 nM; in assay [2] (Homo sapiens, HeLa, 96 h) it was less than 400 nM. Further, the IC50 against EZH2 (rPRC2) (setting [4]) and against Y641N EZH2 (setting [3]) was less than 100 nM each time.
Take `COc1cc(C)[nH]c(=O)c1CNC(=O)c1c(C)n(C(C)C2CCNCC2)c2ccccc12` (single isomer, unassigned) [Compound 326, (R or S)—N-((4-methoxy-6-methyl-2-oxo-1,2-dihydropyridin-3-yl)methyl)-2-methyl-1-(1-(piperidin-4-yl)ethyl)-1H-indole-3-carboxamide hydrochloride]: the EC50 in assay [1] (Homo sapiens) fell in the range of 400 to 2000 nM; in assay [2] (Homo sapiens, HeLa, 96 h), 400 to 2000 nM. Besides, the IC50 at EZH2 (rPRC2) (setting [4]) and against Y641N EZH2 (setting [3]) was less than 100 nM each time.
Take `Cc1cc(C)c(CNC(=O)c2c(C)n(C(C)c3cccc(C#N)c3)c3ccccc23)c(=O)[nH]1` (stereo not shown) [Compound 187, 1-(1-(3-cyanophenyl)ethyl)-N-((4,6-dimethyl-2-oxo-1,2-dihydropyridin-3-yl)methyl)-2-methyl-1H-indole-3-carboxamide]: the EC50 was 400 to 2000 nM in assay [1] (Homo sapiens) and 400 to 2000 nM in assay [2] (Homo sapiens, HeLa, 96 h). In addition, the IC50 was less than 100 nM on EZH2 (rPRC2) (setting [4]) and 100 to 1000 nM against Y641N EZH2 (setting [3]).
As for “(±)-1-(1-(4,4-difluorocyclohexyl)ethyl)-N-((4-methoxy-6-methyl-2-oxo-1,2-dihydropyridin-3-yl)methyl)-2-methyl-1H-indole-3-carboxamide [Compound 304]”, the EC50 in assay [1] is less than 400 nM; in assay [2] (HeLa cells, MSD, 96 hours), less than 400 nM. The IC50 is less than 100 nM at EZH2 (rPRC2) (wild-type EZH2 (rPRC2), read-out: EZH2 IC50) and less than 100 nM at Y641N EZH2 (Y641N mutant EZH2, H3K27Me2 oligonucleosome substrate, read-out: Y641N EZH2 IC50).

For orientation: EC50 means the concentration needed to bring the measured effect to its halfway point. By IC50 is commonly meant the midpoint of a concentration-inhibition curve.

For the origin of these results see US9371331B2, “Modulators of methyl modifying enzymes, compositions and uses thereof” (Constellation Pharmaceuticals, Inc., priority 2012, dated 2016).
